Test results from patent publication US20090281106A1, “PROPHYLACTIC AND/OR THERAPEUTIC METHOD FOR RHEUMATOID ARTHRITIS” (Kowa Co., Ltd, priority 2005, published 2009).

System: rat collagen-induced arthritis model
Assay: rat collagen-induced arthritis model, edema suppression in both hindlimbs
Format: in vivo, female Lewis rat (LEW/Crj)
Conditions: oral, Drug A 3 mg/kg twice a day, Drug B 1.5 mg/kg once a day; for Relative index: edema volume of group / control group; for Edema volume for both hindlimbs: average ± standard error of 5 to 6 rats; for Decreasing rate: vs control group; for edema suppressive effect (in words): sole administration
Procedure: For the cases of combined administration of 2-benzyl-5-(4-chlorophenyl)-6-[4-(methylthio)phenyl]-2H-pyridazin-3-one (the product synthesized by the above-described method is used) (Drug A) and leflunomide (Drug B), and respective single drug administrations, the effect of edema suppression in both hindlimbs was determined by the following method (rat collagen-induced arthritis model) (FDA, CBER, CDER, CDRH: Guidance for industry—Clinical development programs for drugs, devices, and biological products for the treatment of rheumatoid arthritis (RA)—. (1999)). In addition, the test animal used was female Lewis rat (LEW/Crj) (obtained from Charles River Laboratories Japan, Inc.).
For each 8-week-old LEW/Crj rat, the volume of a portion extending from the ankle to the paw was measured for both hindlimbs (hereinafter, hindlimbs volume) by means of a plethysmometer for small animals (TK-101CMP, product of Unicom), and the total volume was taken as the hindlimbs volume upon initiation of test (hereinafter, Pre value). This Pre value was used as an index to divide the rats into groups by one-parameter-based block randomization, so that the values in the respective groups averaged out.
The collagen emulsion for sensitization that was used to induce arthritis in rats, was prepared by homogenizing a 0.3% Type II collagen solution (Collagen Research Center), Adjuvant Peptide (Peptide Institute, Inc.) and Adjuvant Incomplete Freund (DIFCO), using a Handy Micro Homogenizer (Microtec Nition, Co., Ltd.) under ice-cooling. The collagen emulsion thus prepared was intracutaneously administered at 10 sites in the back of each rat at a dose of 0.1 mL/site, to perform initial sensitization of the rat. Seven days after the initial sensitization, 0.12 mL of the same collagen emulsion was intracutaneously administered to the tail head of each rat, to perform booster sensitization.
Drug administration was conducted from the day after the initial sensitization through 29 days thereafter. The group for sole administration of Drug A was orally administered with the drug at 3 mg/kg, twice a day, in the morning (9:00 to 11:00) and in the evening (15:30 to 17:30). The group for sole administration of Drug B was orally administered with the drug at 1.5 mg/kg, once a day, in the afternoon (11:30 to 13:30). On the other hand, the group for combined administration of Drug A and Drug B was orally administered with Drug A at 3 mg/kg in the morning (9:00 to 11:00) and in the evening (15:30 to 17:30), and with Drug B at 1.5 mg/kg in the afternoon (11:30 to 13:30).
14, 18, 21, 26 and 31 days after the initial sensitization, the hindlimbs volume was measured again for each rat, and the difference between each of the values and the Pre value was determined to calculate the edema volume for both hindlimbs.
Tables 1 to 4 and FIGS. 1 to 4 represent the edema volume for both hindlimbs after 18, 21, 26 and 31 days from the initial sensitization, respectively, of the group for sole administration of Drug A, the group for sole administration of Drug B and the group for combined administration. The edema volume for both hindlimbs (mL) is expressed in the average value±standard error of 5 to 6 rats in each group. Furthermore, the decreasing rate is indicated as (average value of edema volume for both hindlimbs for the control group−the average value of edema volume for hindlimbs for each group)/(average value of edema volume for both hindlimbs for the control group)×100, while the relative index is indicated as (average value of edema volume for both hindlimbs for each group)/(average value of edema volume for both hindlimbs for the control group).

[1] = 18 days after initial sensitization
[2] = 21 days after initial sensitization
[3] = 26 days after initial sensitization
[4] = 31 days after initial sensitization

Row | Structure (SMILES) | Relative index [1] | Edema volume for both hindlimbs [1] [mL] | Decreasing rate [1] [%] | Relative index [2] | Edema volume for both hindlimbs [2] [mL] | Decreasing rate [2] [%] | Relative index [3] | Edema volume for both hindlimbs [3] [mL] | Decreasing rate [3] [%] | Relative index [4] | Edema volume for both hindlimbs [4] [mL] | Decreasing rate [4] [%] | edema suppressive effect (in words)
1 | CSc1ccc(-c2nn(Cc3ccccc3)c(=O)cc2-c2ccc(Cl)cc2)cc1 [Drug A, 2-benzyl-5-(4-chlorophenyl)-6-[4-(methylthio)phenyl]-2H-pyridazin-3-one] | 0.89 | 1.79 ± 0.17 | 11 | 0.90 | 1.54 ± 0.17 | 10 | 0.99 | 1.58 ± 0.27 | 1 | 1.02 | 1.44 ± 0.26 | −2 | did not show a potent edema suppressive effect
2 | Cc1oncc1C(=O)Nc1ccc(C(F)(F)F)cc1 [Drug B, N-(4-trifluoromethylphenyl)-5-methylisoxazole-4-carboxamide] | 0.28 | 0.57 ± 0.32 | 72 | 0.34 | 0.58 ± 0.31 | 66 | 0.49 | 0.78 ± 0.28 | 51 | 0.57 | 0.81 ± 0.26 | 43 | decrease in the edema suppressive effect in the stage after 18 days from the initial sensitization
